Measured values published in a melting point compilation (Tetko et al.).

Row | SMILES | melting point
1 | NC(=O)C1(N)CCOCC1 | 78 to 80 °C
2 | BrC12CC3CC(C1)CC(Br)(C3)C2 | 108 to 110 °C
3 | Nc1nccn2ccnc12 | 212 to 214 °C
4 | Cc1cc(N2CC(C(=O)O)CC2=O)ccc1Br (stereo unspecified) | 167 to 169 °C
5 | Sc1nnc(-c2ccccc2)c(-c2ccccc2)n1 | 222 to 224 °C
6 | Cc1cc(N)c(C)cn1 | 145 to 147 °C
7 | O=CN1CCN(C(=NS(=O)(=O)c2ccccc2)C(F)(F)F)CC1 | 114 to 116 °C
8 | COc1cc(C=O)c(-c2ccccc2)cc1OC | 133 to 135 °C
9 | COc1ccc(C#N)cc1CBr | 123 to 125 °C
10 | CN(C)S(=O)(=O)CCC(=O)O | 121 to 123 °C
11 | ClCc1nc(-c2ccccn2)no1 | 102 to 104 °C
12 | Cc1cc(NC(=O)C(C)Cl)no1 (stereo unspecified) | 132 to 134 °C
13 | Cn1c(=O)c2ccccc2n2cc3ccccc3c12 | 164 to 166 °C
14 | CCC1(CC)NC(=O)NC1=O | 180 to 182 °C
15 | c1cnc2c(c1)NCCO2 | 111 to 113 °C
16 | Cc1nc(-c2ccccc2Br)sc1C(C)O (stereo unspecified) | 79 to 81 °C
17 | O=C(O)C=Cc1cncc(O)c1 | 243 to 245 °C
18 | COc1ccc(C=O)cc1OCc1cccnc1 | 84 to 86 °C
19 | NS(=O)(=O)c1cc(Cl)c(Cl)c(C(=O)O)c1 | 237 to 239 °C
20 | COCCNC(N)=O | 72 to 74 °C
21 | Nc1ncc(C(=O)O)cc1Br | 299 to 301 °C
22 | CN(C)S(=O)(=O)c1ccc(Cl)c(N)c1 | 119 to 121 °C

Row | SMILES | melting point
23 | Cc1cc(Cl)cc([N+](=O)[O-])c1I | 73 to 75 °C
24 | CCCC1CCC(=O)NC1=O (stereo unspecified) | 76 to 78 °C
25 | CC1CC(C(=O)O)CC(C)O1 (stereo unspecified) | 109 to 111 °C
26 | O=C(CCl)NC1CCOCC1 | 82 to 84 °C
27 | CNC(=O)NC(=O)CCCCl | 122 to 124 °C
28 | Cc1sc2ncnc(NN)c2c1C | 208 to 210 °C
29 | O=C(O)c1cc(-c2cccc(Cl)c2)nc2nc(N3CCCCC3)sc12 | 199 to 203 °C
30 | CN(C)S(=O)(=O)c1cccc(C#N)c1 | 128 to 130 °C
31 | COc1ccc(C=O)cc1OC(F)F | 34 to 38 °C
32 | Cc1nn(C)c(Cl)c1/C=C/C(=O)O | 156 to 158 °C
33 | Cc1nc(N(C)C)sc1C(=O)O | 99 to 101 °C
34 | CC(C)CCNC(=O)NC(=O)CCl | 93 to 95 °C
35 | CC1(C)CCCCC1CC(=O)O (stereo unspecified) | 41 to 43 °C
36 | COCCN1C(=O)C(=O)c2ccc(Br)cc21 | 139 to 141 °C
37 | CC(C)C(Br)C(=O)N1CCCCC1 (stereo unspecified) | 61 to 63 °C
38 | O=C(c1cc(Cl)c(Cl)[nH]1)C(Cl)(Cl)Cl | 129 to 131 °C
39 | Nc1cc(F)c(F)cc1N | 126 to 130 °C
40 | Nc1ccc2nc(-n3ccnc3)sc2c1 | 202 to 204 °C
41 | Cc1cc(C)nc(C#N)c1 | 43 to 45 °C
42 | Cc1c(Cl)cnc(Cl)c1C#N | 76 to 78 °C
43 | O=C1CCCCCN1CO | 63 to 67 °C
44 | O=C1CC(C2CCCCN2)CN1 (stereo unspecified) | 62 to 64 °C

Row | SMILES | melting point
45 | COC(=O)c1c(C)[nH]c(C(=O)O)c1C | 206 to 208 °C
46 | O=S(=O)(NC1=NCCN1)c1cccs1 | 173 to 175 °C
47 | Nc1cc2c(cc1N)OCC(=O)N2 | 252 to 254 °C
48 | CC(Cl)C(=O)NCC(F)(F)F (stereo unspecified) | 42 to 44 °C
49 | Cc1cc(C=O)cc(C)c1OC(F)F | 56 to 58 °C
50 | CCN(CC)S(=O)(=O)c1ccc(N2CCCCC2)c(N)c1 | 75 to 77 °C
51 | O=C1CCCC1c1ccc(Cl)c(Cl)c1 (stereo unspecified) | 63 to 65 °C
52 | Cc1sc2nc(-c3ccccn3)nc(Cl)c2c1-c1ccccc1 | 166 to 168 °C
53 | CC(C)(C)OC(=O)N1CCC2(CC1)CC2C(=O)NN (stereo unspecified) | 132 to 134 °C
54 | Nc1cc(C2CC2)nn1-c1ncccn1 | 144 to 146 °C
55 | CCCC(=O)NC1CCCNC1 (stereo unspecified) | 57 to 59 °C
56 | Cc1cc(C)cc(C(=O)/C=C2\NC(=O)CS2)c1 | 163 to 165 °C
57 | CCC(C)n1ncc2c(C(=O)O)cc(C3CC3)nc21 (stereo unspecified) | 134 to 136 °C
58 | Cc1nn(C)c(C)c1CC(=O)O | 223 to 225 °C
59 | COc1ncc(Br)cn1 | 55 to 60 °C
60 | ClCc1sc2ccccc2c1Cl | 77 to 79 °C
61 | Cn1ccc(N2CCCC(Br)C2=O)n1 (stereo unspecified) | 104 to 106 °C
62 | CC(C)(C)c1nc(=N)s[nH]1 | 160 to 162 °C
63 | OC(c1ccccc1)C1CCNCC1 (stereo unspecified) | 171 to 173 °C
64 | Nc1ccccc1-c1nnnn1C1CC1 | 97 to 99 °C
65 | Cc1ccc(S(=O)(=O)N2CCCC2)cc1C(=O)O | 178 to 180 °C
66 | Nc1nc2c(C(F)(F)F)cccc2s1 | 48 to 50 °C

Now from value to molecule:

Row | melting point | SMILES
67 | 167 to 169 °C | O=C(Nc1cccc(NC(=O)c2ccco2)c1)OCC(F)(F)F
68 | 179 to 181 °C | CCOC1CCN(C(=O)Nc2cccc(C(=O)O)c2)CC1
69 | 155 to 157 °C | CCC(C)NS(=O)(=O)c1cccc(C(=O)O)c1 (stereo unspecified)
70 | 173 to 175 °C | O=C(O)CCc1ccc(S(=O)(=O)NC2CC2)cc1
71 | 187 to 189 °C | COc1ccc(C(=O)NC(C(=O)O)c2ccccc2)cc1 (stereo unspecified)
72 | 122 to 124 °C | N#Cc1ccccc1CN1C(=O)CCC1=O
73 | 56 to 58 °C | O=C1CCCc2ccc(F)cc21
74 | 229 to 231 °C | Cc1nn(-c2ccc(C(=O)O)cc2)c(C)c1Br
75 | 186 to 188 °C | COc1ccc(-c2cc(C(=O)O)sc2C)cc1
76 | 179 to 181 °C | Cn1c(CCl)nc2ccccc2c1=O
77 | 228 to 230 °C | COc1nc(O)c2ccccc2n1
78 | 149 to 151 °C | Cc1cc(C(=O)O)c(Cl)cc1F
79 | 225 to 227 °C | O=C(O)c1cccc2c3c([nH]c12)CCCCC3
80 | 150 to 152 °C | O=C(O)CCc1nc(-c2ccc(F)cc2)no1
81 | 94 to 97 °C | O=C(O)c1ccc(NS(=O)(=O)c2ccc3c(c2)OCCO3)cc1
82 | 187 to 189 °C | CC(=O)c1ccc2c(c1)C(C)(C)C(=O)N2
83 | 89 to 91 °C | Nc1ccn(-c2ncccc2Cl)n1
84 | 171 to 173 °C | CNS(=O)(=O)c1ccc(Cl)c(C(=O)O)c1
85 | 173 to 175 °C | Nc1ccc2c(c1)CCN2C(=O)c1ccoc1
86 | 103 to 105 °C | CSCCC(NS(=O)(=O)c1ccccc1)C(=O)O (stereo unspecified)
87 | 163 to 165 °C | Nc1nc(CCl)nc2ccccc12
88 | 159 to 161 °C | COc1cccc2c1CCCC(=O)N2
89 | 118 to 120 °C | CC(O)(c1ccc(O)cc1)C(F)(F)F (stereo unspecified)
90 | 238 to 240 °C | NNC(=O)c1cc(-c2ccc(Cl)cc2)nc2ccccc12
91 | 51 to 53 °C | Nc1ccc2ccoc2c1
92 | 78 to 80 °C | CC1(c2cccc(N)c2)NC(=O)NC1=O (stereo unspecified)
93 | 119 to 121 °C | N#Cc1ccc(NN)cc1C(F)(F)F

Row | melting point | SMILES
94 | 289 to 291 °C | COc1ccc2[nH]cc(C(=O)CC#N)c2c1
95 | 136 to 138 °C | NC(=S)c1ccc(Cl)c(Cl)c1
96 | 153 to 155 °C | O=C(O)c1ccccc1Nc1ccc(OC(F)F)cc1
97 | 143 to 145 °C | O=Cc1ccc(OC(=O)c2cccc([N+](=O)[O-])c2)cc1
98 | 80 to 83 °C | NNC(=O)CNc1ccc(F)cc1
99 | 110 to 112 °C | Cc1ccccc1OCc1nnc(S)[nH]1
100 | 50 to 52 °C | OC(c1ccc(Br)cc1)C(F)(F)F (stereo unspecified)
101 | 112 to 114 °C | O=C(CCl)N(Cc1ccc(Cl)cc1)C12CC3CC(CC(C3)C1)C2
102 | 42 to 44 °C | Cc1cc(CO)ccc1Cl
103 | 53 to 55 °C | Cc1ccc(CC(=O)Cc2ccc(C)cc2)cc1
104 | 169 to 171 °C | CC(C)NC(=O)Nc1ccccc1[N+](=O)[O-]
105 | 120 to 122 °C | CCc1cccc(N2CC(C(=O)O)CC2=O)c1 (stereo unspecified)
106 | 167 to 169 °C | Cc1cc(F)c(C(=O)O)cc1F
107 | 59 to 61 °C | Cn1c(-c2ccccc2)c(Br)c2ccccc21
108 | 252 to 254 °C | Fc1ccc(-c2cnc(S)o2)cc1
109 | 179 to 181 °C | CC(C)(C)OC(=O)Nc1cc(Br)ccc1C(=O)O
110 | 184 to 186 °C | COc1ccc2c(c1)C=C(C(=O)O)CO2
111 | 174 to 176 °C | NNC(=S)Nc1cccnc1
112 | 124 to 126 °C | COC(=O)CNS(=O)(=O)c1ccc(Cl)nc1
113 | 219 to 221 °C | NS(=O)(=O)c1ccc(Cl)c(C(=O)O)c1
114 | 90 to 92 °C | Oc1ccc(Oc2ccc(C(F)(F)F)cn2)cc1
115 | 240 to 242 °C | O=C(O)CCNC(=O)c1ccc2[nH]ncc2c1
116 | 189 to 191 °C | O=C(O)c1ccc(O)c(S(=O)(=O)Cl)c1
117 | 242 to 244 °C | CCn1ccc(=O)nc1S
118 | 56 to 58 °C | COC(=O)c1cc(S(=O)(=O)Cl)cc(F)c1F
119 | 65 to 67 °C | O=C(c1cccs1)c1cccc2ccccc12
120 | 189 to 191 °C | COc1ccc2c(c1)NC(=O)C2O (stereo unspecified)

Row | melting point | SMILES
121 | 222 to 224 °C | COC(=O)c1ccc(O)nc1C
122 | 73 to 75 °C | O=C(O)C1CC1c1ccc(OC(F)F)cc1 (stereo unspecified)
123 | 148 to 150 °C | CN(C)S(=O)(=O)c1ccnc(N)c1
124 | 129 to 131 °C | Nc1cc(F)ccc1S(N)(=O)=O
125 | 170 to 172 °C | NC(=O)CNC(=O)c1cccc(N)c1
126 | 150 to 152 °C | O=C(Cn1ccnc1)c1ccc(F)cc1
127 | 149 to 151 °C | Cc1ccc(C(=O)O)n1C
128 | 102 to 104 °C | COC(=O)c1ccc(Br)c(S(=O)(=O)Cl)c1
129 | 123 to 125 °C | Cc1ccccc1-c1csc(=O)[nH]1
130 | 238 to 242 °C | Oc1ccc(-c2nc3ccccc3[nH]2)cn1
131 | 94 to 96 °C | NCc1ccc(N2CCOC2=O)cc1
132 | 55 to 57 °C | CC(O)Cc1ccccc1S(C)(=O)=O (stereo unspecified)
133 | 172 to 174 °C | COC(=O)COc1ccc(C(=O)O)cc1
134 | 168 to 170 °C | O=C(O)C1CCCCC1c1nc2ccccc2s1 (stereo unspecified)
135 | 65 to 67 °C | CC(C)(C)c1ccc(SCC(=O)O)cc1
136 | 69 to 71 °C | CC(O)C(C)c1ccc2ccccc2n1 (stereo unspecified)
137 | 209 to 211 °C | CS(=O)(=O)CCS(=O)(=O)c1ccc(N)cc1
138 | 86 to 88 °C | NC(Cn1cnc2ccccc21)c1ccc(F)cc1 (stereo unspecified)
139 | 203 to 205 °C | N#Cc1ccc(OCc2ccc(C(=O)O)o2)cc1
140 | 240 to 242 °C | CC(C)C(=O)Nc1ccc(C(=O)O)cc1
141 | 122 to 124 °C | O=C(O)CCC(=O)c1ccc(Cl)s1
142 | 190 to 192 °C | NC(=O)CC(NC(=O)c1ccccc1Cl)C(=O)O (stereo unspecified)
143 | 249 to 251 °C | NC(=O)c1cccc(C(=O)O)n1
144 | 69 to 71 °C | Cc1oc2ccccc2c1C=O
145 | 169 to 171 °C | O=C(O)COc1cccc(N2CCCC2=O)c1
146 | 106 to 108 °C | Sc1ccc(-c2ccccc2)cc1
